According to US9969697B2, “3,4-dihydroquinazoline derivative and combination comprising the same” (UNIVERSITY-INDUSTRY COOPERATION GROUP OF KYUNG HEE …, priority 2014, dated 2018):

How the values were obtained:
[1] = test system: lung cancer cells (A549); experiment: Cell cycle analysis by PI staining / flow cytometry, with combination index; format: cell-based, human; parameters: SubG1: unit not given here; details: A549, 48 hours
Procedure: To measure the inviability of cancer cells quantitatively, the cell cycle thereof was analyzed through flow cytometry as follows, in accordance with the method given in the document [See Kim, Y. H. et al., Expression of the murine homologue of the cell cycle control protein […] in T lymphocytes.
After adding ribonuclease (2.5 μg/ml) and propidium iodide (50 μg/ml) together with 500 μl of PBS, the cells were left for 30 minutes in the dark at room temperature, followed by analyzing cell cycle within 1 hour using FACScan flow cytometer (Becton Dickinson Co, Heidelberg, Germany).
(§1) Combination index (CI) mathematically expresses the cytotoxicity on cancer cells or growth inhibition of cancer cells through relative comparison after treating drugs alone or in a combination. The CI is the quantitative concept introduced by Paul Talalay and Ting-Chao Chou and was calculated using CalcuSyn software. The effect of combination treatment according to the values of CI was defined as follows.

[2] = molecular target: T1, α1G T-type calcium channel (Homo sapiens, UniProt O43497); experiment: T-type calcium channel activity, whole-cell patch-clamp in HEK293 cells; format: cell-based; details: HEK293 cells expressing α1G T-type calcium channel; read-out: T-type calcium channel blocking effect (IC50: μM)
T1 construct: expressed in transfected cells
T1 sequence (O43497 whole entry): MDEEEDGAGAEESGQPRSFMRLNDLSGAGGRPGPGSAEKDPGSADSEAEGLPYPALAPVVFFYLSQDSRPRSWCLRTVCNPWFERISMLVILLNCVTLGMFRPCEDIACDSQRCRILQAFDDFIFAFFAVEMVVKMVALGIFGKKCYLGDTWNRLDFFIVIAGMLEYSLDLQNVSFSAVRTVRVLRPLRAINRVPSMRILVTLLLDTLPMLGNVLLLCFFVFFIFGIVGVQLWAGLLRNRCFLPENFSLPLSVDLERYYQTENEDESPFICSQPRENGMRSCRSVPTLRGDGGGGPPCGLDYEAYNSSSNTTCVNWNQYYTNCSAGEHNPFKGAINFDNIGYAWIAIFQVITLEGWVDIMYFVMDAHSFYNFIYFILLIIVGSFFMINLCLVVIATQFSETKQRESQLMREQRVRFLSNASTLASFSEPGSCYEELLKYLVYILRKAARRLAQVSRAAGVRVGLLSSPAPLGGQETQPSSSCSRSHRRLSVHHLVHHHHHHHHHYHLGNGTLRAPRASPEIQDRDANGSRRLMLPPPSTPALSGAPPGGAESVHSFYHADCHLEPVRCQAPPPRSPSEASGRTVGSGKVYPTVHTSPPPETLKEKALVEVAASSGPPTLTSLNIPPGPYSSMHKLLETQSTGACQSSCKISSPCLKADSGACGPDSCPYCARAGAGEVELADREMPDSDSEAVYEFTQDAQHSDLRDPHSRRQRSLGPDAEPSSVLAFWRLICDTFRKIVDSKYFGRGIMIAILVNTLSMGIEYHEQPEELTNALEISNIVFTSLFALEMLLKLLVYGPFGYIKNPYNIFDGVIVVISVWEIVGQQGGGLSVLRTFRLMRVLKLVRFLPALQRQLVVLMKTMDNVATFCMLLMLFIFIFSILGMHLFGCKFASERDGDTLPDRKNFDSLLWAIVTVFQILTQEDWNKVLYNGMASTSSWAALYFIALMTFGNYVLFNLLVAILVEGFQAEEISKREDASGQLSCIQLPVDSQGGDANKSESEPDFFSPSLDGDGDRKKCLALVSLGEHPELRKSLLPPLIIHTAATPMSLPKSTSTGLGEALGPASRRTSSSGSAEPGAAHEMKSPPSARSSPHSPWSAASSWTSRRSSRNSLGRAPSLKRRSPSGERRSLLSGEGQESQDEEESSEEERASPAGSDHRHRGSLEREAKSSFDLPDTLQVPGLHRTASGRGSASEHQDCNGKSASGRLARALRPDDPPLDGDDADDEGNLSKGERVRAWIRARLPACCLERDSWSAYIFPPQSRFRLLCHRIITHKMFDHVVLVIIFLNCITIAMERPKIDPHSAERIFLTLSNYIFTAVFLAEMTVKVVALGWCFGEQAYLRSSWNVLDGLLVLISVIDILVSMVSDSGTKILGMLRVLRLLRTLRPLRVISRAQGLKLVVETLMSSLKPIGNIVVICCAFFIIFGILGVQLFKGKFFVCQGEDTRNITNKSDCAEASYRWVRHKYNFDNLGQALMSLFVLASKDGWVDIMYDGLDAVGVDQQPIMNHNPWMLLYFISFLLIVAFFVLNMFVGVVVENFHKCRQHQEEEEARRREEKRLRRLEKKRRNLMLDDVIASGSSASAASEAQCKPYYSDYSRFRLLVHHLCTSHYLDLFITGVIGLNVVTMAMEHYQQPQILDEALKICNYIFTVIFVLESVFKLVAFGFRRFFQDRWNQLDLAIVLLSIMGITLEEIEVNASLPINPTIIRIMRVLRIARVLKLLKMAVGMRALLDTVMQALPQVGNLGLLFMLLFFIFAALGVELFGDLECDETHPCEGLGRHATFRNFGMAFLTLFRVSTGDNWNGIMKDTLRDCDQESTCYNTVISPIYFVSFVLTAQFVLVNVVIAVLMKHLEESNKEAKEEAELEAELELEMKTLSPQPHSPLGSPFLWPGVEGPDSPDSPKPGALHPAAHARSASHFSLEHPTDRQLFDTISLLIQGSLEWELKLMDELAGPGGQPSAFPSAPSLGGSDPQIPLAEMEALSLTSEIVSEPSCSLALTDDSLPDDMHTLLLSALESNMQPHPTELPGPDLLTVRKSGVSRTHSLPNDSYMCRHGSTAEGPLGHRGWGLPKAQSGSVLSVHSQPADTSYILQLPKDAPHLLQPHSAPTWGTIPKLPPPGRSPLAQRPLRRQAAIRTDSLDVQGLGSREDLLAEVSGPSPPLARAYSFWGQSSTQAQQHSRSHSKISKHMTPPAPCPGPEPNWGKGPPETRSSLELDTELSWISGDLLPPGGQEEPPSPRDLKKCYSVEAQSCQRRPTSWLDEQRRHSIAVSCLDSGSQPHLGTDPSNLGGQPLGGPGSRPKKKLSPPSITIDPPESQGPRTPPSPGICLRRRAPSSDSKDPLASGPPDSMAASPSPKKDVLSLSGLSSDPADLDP
Procedure: The culture medium was replaced with a fresh medium every 3 to 4 days, and the cultured cells were subjected to sub-culture every week. […] The cells used for T-type calcium channel activity assay were cultured on a cover slip coated with poly-L-lysine (0.5 mg/mL) whenever sub-cultured, and their calcium channel activity was recorded 2 to 7 days after the cultivation. Current of the T-type calcium channel at a single cell level was measured according to an electrophysiological whole-cell patch-clamp method using EPC-9 amplifier (HEKA, Germany). At this time, a cell exterior solution [NaCl 140 mM, CaCl2 2 mM, and HEPES 10 mM (pH 7.4)] and a cell interior solution [KCl 130 mM, HEPES 10 mM, EGTA 11 mM, and MgATP 5 mM (pH 7.4)] were employed. Inward current caused by the T-type calcium channel activation which occurred when the cells were converted into a whole-cell recording mode by stabbing a microglass electrode having 3-4 MΩ resistance which was filled with the cell interior solution into a single cell and depolarized at −30 mV (50 ms duration period) every 10 s with fixing membrane potential to −100 mV was measured according to a T-type calcium Channel activity protocol activated at low voltage.

[3] = test system: A549 cell line (human lung cancer); experiment: MTT cytotoxicity assay on cancer cells; format: cell-based; details: 48 hours after treatment
Procedure: A549 cell line (human lung cancer) and PANC-1 cell line (human pancreatic cancer) were obtained from Korean Cell Line Bank (KCLB). The cells were cultured in RPMI 1640 medium supplemented with 10% fetal bovine serum (FBS) being heated and inactivated, penicillin (100 units/ml) and streptomycin sulfate (100 units/ml) under the condition of 37° C. and 5% CO2.
In order to confirm the cytotoxicity of drugs, an MTT (3-(4,5-dimethylthiazol-2-yl)-2,5-diphenyltetrazolium bromide) assay was conducted as follows [See Armichael et al., Evaluation of a tetrazolium-based semiautomated colorimetric assay: assessment of chemisensitivity testing. Cancer Research, 47, pp. 944-946, 1987]. The MTT assay is based on the reduction of water-soluble MTT (tetrazolium salt, yellow) which can be absorbed in living cells to its water-insoluble formazan crystals (purple) by activity of oxidoreductase enzymes of mitochondria. That is, when the number of viable cells is more, the formation of formazan crystals increases and the value of absorbance becomes higher.
Each of the cultured cancer cells was inoculated in a 96-well plate (5×10^4 cells/well) and cultured in RPMI medium (100 μl) containing 5% FBS. In 48 hours after the treatment of drugs (200, 100, 50, 25, 12.5, 6.25, 3.125 μM), 20 μl of an MTT solution (5.0 mg/ml) was added to each well, followed by further incubation for 4 hours. The supernatant of the plate was collected, and formazan crystals formed by MTT in the cells were added in 200 μl of DMSO to dissolve the precipitate. The OD value was measured at 540 nm using microplate reader (Molecular Devices).

[4] = test system: pancreatic cancer cells (PANC-1); experiment: Cell cycle analysis by PI staining / flow cytometry, with combination index; format: cell-based, human; details: PANC-1, 48 hours, Table 3
[5] = test system: lung cancer cells (A549); experiment: Annexin V-FITC/PI double staining assay (apoptosis), with combination index; format: cell-based, human; parameters: unit not given here
Procedure: Cell death include the event that phosphatidylserine translocated to the surface of cell membrane is bound to Annexin V-FITC to express fluorochromes. Cells were treated with drugs, harvested, washed with ice-cold PBS twice, and supplied with 100 μl of Annexin V binding buffer ([…] 4-(2-hydroxyethyl)piperazine-1-ethanesulfonic acid (HEPES)/NaOH, 140 mM NaCl, 2.5 mM CaCl2, pH 7.4). Thereto, 5 μl of FITC-conjugated Annexin V and PI (50 μg/ml) were added. The mixture was left for 30 minutes in the dark at room temperature, followed by analysis within 1 hour using FACScan flow cytometer (Becton Dickinson Co, Heidelberg, Germany).
as §1

For `COc1cccc2c1C(=O)c1c(O)c3c(c(O)c1C2=O)C[C@@](O)(C(=O)CO)C[C@@H]3O[C@H]1C[C@H](N)[C@H](O)[C@H](C)O1` [Doxorubicin], the G0/G1 ([1]; 10 μM, Table 5) was 36.7, the G2/M ([1]; 10 μM, Table 5) was 18.3 and the S ([1]; 10 μM, Table 5) was 11.9. The SubG1 ([1]; 10 μM, Table 5) was 33.5, the G0/G1 ([1]; 10 μM, Table 6) was 36.7 and the G2/M ([1]; 10 μM, Table 6) was 18.3. It also gave an S ([1]; 10 μM, Table 6) of 11.9 and a SubG1 ([1]; 10 μM, Table 6) of 33.5.

For `COc1ccc(CN(C(C)=O)C2c3ccccc3N=C(N(C)CCCNC(=O)N(C)C)N2c2ccc(C3CCCCC3)cc2)cc1` (stereo not shown) [Compound I-3, 4-[N-(4-methoxybenzyl)acetamido)-3-(4-cyclohexylphenyl)-2-[N—(N′,N′-dimethylureidopropyl)-N-methyl]amino-3,4-dihydroquinazoline], the G0/G1 ([1]; 10 μM, Table 6) was 76.8, the G2/M ([1]; 10 μM, Table 6) was 12.1 and the S ([1]; 10 μM, Table 6) was 7.6. It also gave a SubG1 ([1]; 10 μM, Table 6) of 3.7.

In the case of `CN(C)C(=O)NCCCN(C)C1=Nc2ccccc2C(CC(=O)NCc2ccc(F)cc2)N1c1ccc(C2CCCCC2)cc1` (stereo not shown) [Compound I-2, 4-[N-(4-fluorobenzyl)acetamido]-3-(4-cyclohexylphenyl)-2-[N—(N′,N′-dimethylureidopropyl)-N-methyl]amino-3,4-dihydroquinazoline], the IC50 [2] is reported as 0.89 ± 0.06 µM, the IC50 [3] is reported as 7.3 µM and the G0/G1 ([1]; 10 μM, Table 2) is reported as 79.1. The G2/M ([1]; 10 μM, Table 2) was 10.9, the S ([1]; 10 μM, Table 2) was 2.4 and the SubG1 ([1]; 10 μM, Table 2) was 7.6. The G0/G1 ([1]; 10 μM, Table 4) was 77.4, the G2/M ([1]; 10 μM, Table 4) was 13.3 and the S ([1]; 10 μM, Table 4) was 5.4. For the same molecule, the SubG1 ([1]; 10 μM, Table 4) was 4.0, the G0/G1 ([1]; 10 μM, Table 5) was 76.8 and the G2/M ([1]; 10 μM, Table 5) was 12.1. For the same molecule, the S ([1]; 10 μM, Table 5) was 7.6, the SubG1 ([1]; 10 μM, Table 5) was 3.7 and the G0/G1 ([4]; 2.5 μM) was 44.7. For the same molecule, the G2/M ([4]; 2.5 μM) was 35, the S ([4]; 2.5 μM) was 7.2 and the SubG1 ([4]; 2.5 μM) was 2.5. For the same molecule, the “AV+/PI− (early apoptosis)” value ([5]; A549, 2.5 μM) was 2.4, the “Total AV+ (sum of early and late apoptosis)” value (“Total AV+” for short) ([5]; A549, 2.5 μM) was 6.08 and the “AV+/PI− (early apoptosis)” value ([5]; A549, 5 μM) was 1.88. The “Total AV+” value ([5]; A549, 5 μM) was 4.78, the “AV+/PI− (early apoptosis)” value ([5]; A549, 10 μM) was 8.8 and the “Total AV+” value ([5]; A549, 10 μM) was 13.14.

With `C#Cc1cccc(Nc2ncnc3cc(OCCOC)c(OCCOC)cc23)c1` [erlotinib, Erlotinib] the G0/G1 ([1]; 150 μM, Table 5) was 70.6, the G2/M ([1]; 150 μM, Table 5) was 12.9 and the S ([1]; 150 μM, Table 5) was 7.2. The SubG1 ([1]; 150 μM, Table 5) was 9.6, the G0/G1 ([1]; 300 μM, Table 6) was 27.7 and the G2/M ([1]; 300 μM, Table 6) was 1.2. The S ([1]; 300 μM, Table 6) was 1 and the SubG1 ([1]; 300 μM, Table 6) was 70.3.

With `COCC(=O)O[C@]1(CCN(C)CCCc2nc3ccccc3[nH]2)CCc2cc(F)ccc2[C@@H]1C(C)C` [Mibefradil] the IC50 [3] was 24.9 µM.

For `COc1cc2ncnc(Nc3ccc(F)c(Cl)c3)c2cc1OCCCN1CCOCC1` [Gefitinib], the G0/G1 ([1]; 40 μM, Table 5) was 72.7, the G2/M ([1]; 40 μM, Table 5) was 11.8 and the S ([1]; 40 μM, Table 5) was 4. The SubG1 ([1]; 40 μM, Table 5) was 11.6, the G0/G1 ([1]; 40 μM, Table 6) was 72.7 and the G2/M ([1]; 40 μM, Table 6) was 11.8. The S ([1]; 40 μM, Table 6) was 4 and the SubG1 ([1]; 40 μM, Table 6) was 11.6.

`CN(C)C(=O)NCCCN(C)C1=Nc2ccccc2C(CC(=O)NCc2ccccc2)N1c1ccc(C2CCCCC2)cc1` (stereo not shown) [Compound I-1, 4-(N-benzylacetamido)-3-(4-cyclohexylphenyl)-2-[N—(N′,N′-dimethylureidopropyl)-N-methyl]amino-3,4-dihydroquinazoline] showed an IC50 [2] of 0.39 ± 0.11 µM and an IC50 [3] of 12.2 µM.

`COc1cc([C@@H]2c3cc4c(cc3[C@@H](O[C@@H]3O[C@@H]5CO[C@@H](C)O[C@H]5[C@H](O)[C@H]3O)[C@H]3COC(=O)[C@H]23)OCO4)cc(OC)c1O` [Etoposide] was tested, and the G0/G1 ([1]; 50 μM, Table 4) was 36.0, the G2/M ([1]; 50 μM, Table 4) was 18.9 and the S ([1]; 50 μM, Table 4) was 12.3. For the same molecule, the SubG1 ([1]; 50 μM, Table 4) was 33.0, the “AV+/PI− (early apoptosis)” value ([5]; A549, 50 μM) was 19.1 and the “Total AV+” value ([5]; A549, 50 μM) was 31.68.

`N.N.[Cl][Pt][Cl]` [Cisplatin] was tested, and the G0/G1 ([1]; 20 μM, Table 2) was 9.0, the G2/M ([1]; 20 μM, Table 2) was 67.5 and the S ([1]; 20 μM, Table 2) was 13.1. It also gave a SubG1 ([1]; 20 μM, Table 2) of 10.5, a G0/G1 ([1]; 30 μM, Table 2) of 14.0 and a G2/M ([1]; 30 μM, Table 2) of 52.9. The S ([1]; 30 μM, Table 2) was 15.8, the SubG1 ([1]; 30 μM, Table 2) was 17.0 and the G0/G1 ([4]; 30 μM) was 42. It also gave a G2/M ([4]; 30 μM) of 29.4, an S ([4]; 30 μM) of 9.4 and a SubG1 ([4]; 30 μM) of 9.3.

Molecule `Cc1ccc(NC(=O)c2ccc(CN3CCN(C)CC3)cc2)cc1Nc1nccc(-c2cccnc2)n1` [Imatinib] has a G0/G1 ([1]; 100 μM, Table 5) of 72.4, a G2/M ([1]; 100 μM, Table 5) of 14.4 and a SubG1 ([1]; 100 μM, Table 5) of 2.9. The G0/G1 ([1]; 100 μM, Table 6) was 72.4, the G2/M ([1]; 100 μM, Table 6) was 14.4 and the SubG1 ([1]; 100 μM, Table 6) was 2.9.
